Paper PMC4912613, “A broad analysis of resistance development in the malaria parasite” (Nature Communications, 2016)
Like-named read-outs stand apart in the source and are kept apart here.

How the values were obtained:
[1] = system: P. falciparum; test: Rate of killing (parasite viability) assay; assay type: cell-based, Plasmodium falciparum; conditions: profile compared with chloroquine, pyrimethamine, atovaquone; 48 h treatment
Method: To identify whether selection success could be predicted by compound speed of action, and to gain a greater insight into the potential mechanisms of action, assays were performed to test the killing rate (Supplementary Data 1)[33]. To quantify the killing rate, viability time-course profiles for each compound were compared with antimalarials known to have fast (chloroquine), moderate (pyrimethamine) or slow (atovaquone) rate of action. These rates were then compared with other compound characteristics, including cross-resistance profile, selection success, potency and structural characteristics to identify any possible trends. […] One compound's rate of killing, MMV666080, was unidentifiable due to compound availability. No correlation was seen between compound structure and speed of action. Additionally, there was no correlation found between killing rate and compound potency against 3D7, nor between potency and selection success (Supplementary Fig. 2).
Rate of killing was determined for each compound following a previously described methodology, which uses the invasion of fresh erythrocytes as surrogate of parasite viability. Briefly, parasites were treated with compounds for 48 h. Compound was washed out and fresh-labelled erythrocytes added to the treated parasites. Double stained erythrocytes (RBC label plus parasite DNA label) were quantified and per cent of survival determined.

[2] = system: 3D7; test: Cross-resistance EC50 assay, 3D7 parent / sensitive strain; assay type: cell-based; conditions: Plasmodium falciparum
Text: Multidrug resistance alleles, including mutations in P. falciparum chloroquine resistance transporter (pfcrt) and P. falciparum multi-drug resistance transporter 1 (pfmdr1) are very common in field isolates. Therefore, we sought to assess the degree to which pre-existing resistance alleles would contribute to a loss of potency for this diverse collection of small molecule compounds. Fifteen clones derived from three main parent lines were chosen to maximize diversity in mutated pathways and genetic backgrounds, thus representing the variety of resistance seen in the field: 3D7 (ref. [23]), W2 (ref. [24]) or Dd2 (ref. [25]). The 3D7 line originates from the clone of a Netherlands clinical isolate strain[23][26] and is generally considered to be drug sensitive, though it does convey resistance to sulfadoxine. Conversely, W2 (ref. [24], [27]) and Dd2 (ref. [25]) are multi-drug-resistant lines originating from the Indochina III/CDC isolate, which contain point mutations in pfcrt as well as amplifications in pfmdr1 and GTP cyclohydrolase.
To evaluate potential overlapping activity against known antimalarial drug targets, we performed dose-response studies with each compound against our assembled set of drug-resistant lines and their corresponding parents, in an asexual blood stage proliferation assay (Table 1). Comparisons were made to the drug-sensitive strain 3D7 when a parent was unavailable (TM90C2A, W2 and Dd2). As laboratories conducted EC50 assays with different strains and protocols, all comparisons were made between assays from the same laboratory and under the same assay conditions. Compounds displaying >5-fold EC50 shifts relative to the parent or sensitive strain were flagged as having potentially non-novel targets. Average fold shifts per strain ranged from 0.82 to 2.34, with a median of 1.23 indicating there was not common resistance to any one resistant clone. No resistance patterns were observed when classifying the compounds based on chemical structure, but this was not surprising given the diversity of compounds chosen. On the other hand, given that these confirmed compounds were derived from larger unconfirmed hit lists to which some filtration criteria may have been applied (for example, elimination of obvious dihydrofolate reductase inhibitors[32]), some[10][11][12][13] pre-existing bias may exist in the set.
The 48-h assay was carried out in a 96-well format following standard methods using the ^3H-hypoxanthine incorporation assay. The raw EC50 values corresponding to this assay can be found in Supplementary Data 3. Briefly, this assay relies on the parasite incorporation of labelled hypoxanthine that is proportional to P. falciparum growth. A culture of parasitized RBCs (0.5% parasitemia with a percentage of ring stage higher than 70% of total parasitemia, 2.0% haematocrit) in RPMI-1640, […] and 5 μM hypoxanthine was exposed to drug serial dilutions. Plates were incubated for 24 h at 37 °C, 5% CO2, 5% O2 and 90% N2. After 24 h of incubation, ^3H-hypoxanthine was added and plates were incubated for an additional 24-h period. After that, parasites were harvested on a glass fibre filter using a TOMTEC Cell Harvester 96. Filters were dried and melt-on scintillator sheets were used to determine the incorporation of ^3H-hypoxanthine. Radioactivity was measured using a microbeta counter. Data were normalized using the incorporation of the positive (parasitized RBCs without drug) and negative (same culture with artesunate at 2 μM) controls. All assays were conducted in triplicate using three independently grown cultures, and EC50 values were determined using the XLfit add-in module for Excel (version 2.3.1) from Grafit (version 5.3.1.3), where parameter h is the assay hill slope, x is the compound concentration and y is the inhibition of growth effect. The XLfit equation is: […]
Alternatively, a SYBR Green-based proliferation approach was used for the 72-h assay, as previously described. […]

[3] = SYBR green 72 hour assay, asynchronized parasites, 96-well or 1536-well format, 3D7 parent, read-out: 3D7 (PARENT) EC50 (µM) Average EC50
[4] = SYBR green 72 hour assay, synchronized parasites, 384-well format, strain 3D7 (parent), read-out: 3D7 (PARENT) Average EC50
[5] = hypoxanthine 48-hour assay, synchronized parasites, 96-well format, strain 3D7 (parent), read-out: 3D7 (PARENT) Average EC50
[6] = hypoxanthine 48-hour assay, synchronized parasites, 96-well format, strain 3D7-C9-WT (parent of PfATP4 Mut3), read-out: 3D7-C9-WT (PARENT) Average EC50

| Compound | Killing Rate [1] | EC50 [2, 3] [µM] | EC50 ([2]; SYBR green 72 hour assay, synchronized parasites, 384-well format, 3D7 parent, read-out: 3D7 (PARENT) Average EC50) [µM] | EC50 [2, 4] [µM] | EC50 [2, 5] [µM] | EC50 [2, 6] [µM] | EC50 ([2]; 3D7, 48 h, read-out: 3D7 (PARENT) Average EC50) [µM] | EC50 ([2]; 3D7, 48 h, read-out: 3D7-C9-WT (PARENT) Average EC50) [µM] | EC50 ([2]; 3D7, 72 h, read-out: 3D7 (PARENT) Average EC50) [µM] | EC50 ([2]; 3D7, 72 h, read-out: 3D7 (PARENT) EC50 (µM) Average EC50) [µM] |
| --- | --- | --- | --- | --- | --- | --- | --- | --- | --- | --- |
| COc1ccc(NC(=O)N2CCCCN3[C@H](CN)[C@H](c4ccc(C#Cc5ccccc5)cc4)[C@@H]3C2)cc1 [BRD1095] | PYR/CQ (moderate) | 0.00215 | 0.022 | – | – | – | – | – | – | – |
| CCN(CC)CCn1c(=N)n(CC(O)c2ccc(Cl)c(Cl)c2)c2ccccc21.Cl (stereo not shown) [MMV000248] | CQ (fast) | 0.138 | – | 0.236 | 0.308 | 0.399 | – | – | – | – |
| CCOc1cc2c(cc1OCC)C(c1cc(Cl)ccc1O)NCC2 (stereo not shown) [MMV000478] | CQ (fast) | 0.613 | – | 1.85 | 1.07 | 1.28 | – | – | – | – |
| CCCOCc1cc(CN2CCN(c3cccc(Cl)c3)CC2)c(O)c2ncccc12 [MMV000787] | CQ (fast) | 0.645 | – | 0.631 | 1.46 | 0.935 | – | – | – | – |
| CN1CCN(c2ccc(Nc3c4ccccc4nc4ccccc34)cc2)CC1 [MMV006172] | CQ (fast) | 0.126 | – | 0.046 | 0.089 | 0.097 | – | – | – | – |
| CCCN(CCC)CC(O)COc1ccccc1C(=O)Nc1ccccc1 (stereo not shown) [MMV006455] | CQ (fast) | 0.148 | – | 2.43 | 0.529 | – | – | – | – | – |
| COc1cc2cc(C(=O)Nc3ccccc3)c(N)nc2cc1OC [MMV006767] | PYR (moderate) | 1.51 | – | 0.762 | 0.957 | 0.74 | – | – | – | – |
| Cc1cc(Nc2ccc(OCc3ccccc3)cc2)nc2cc(O)ccc12 [MMV007181] | PYR/CQ (moderate) | 0.086 | – | 0.15 | 0.343 | 0.183 | – | – | – | – |
| Brc1ccc(Nc2nc3ccccc3nc2Nc2ccc(Br)cc2)cc1 [MMV007224] | ATQ (slow) | 0.709 | – | 0.367 | 0.284 | 0.398 | – | – | – | – |
| Cc1ccc(Cn2c(N3CCC(C(=O)NCc4cccs4)CC3)nc3ccccc32)cc1 [MMV007564] | PYR/CQ (moderate) | 0.867 | – | 0.681 | 0.578 | 0.477 | – | – | – | – |
| Cc1c(C)n(Cc2ccc(F)cc2)c2ccc(C(=O)NCc3ccco3)cc12 [MMV008149] | ATQ (slow) | 1.06 | – | 0.357 | 0.773 | 2.74 | – | – | – | – |
| OC(CNC1CCCCC1)Cn1c2ccccc2c2ccccc21 (stereo not shown) [MMV009063] | CQ (fast) | 0.281 | – | 0.464 | 0.785 | – | – | – | – | – |
| CCN(CC)S(=O)(=O)c1ccc(-c2csc(Nc3ccc(C)c(C)c3)n2)cc1 [MMV009108] | ATQ (slow) | 0.851 | – | 0.759 | 0.93 | 1.11 | – | – | – | – |
| COC(=O)c1ccc(C2C3=C(O)CC(c4ccc(F)cc4)CC3=Nc3ccccc3N2C(=O)c2ccccc2)cc1 (stereo not shown) [MMV011438] | ATQ (slow) | 0.187 | – | 0.229 | 0.428 | 0.513 | – | – | – | – |
| Nc1ccc(-c2nc3cc(Oc4ccc(Oc5ccc6[nH]c(-c7ccc(N)cc7)nc6c5)cc4)ccc3[nH]2)cc1 [MMV011895] | CQ (fast) | 0.24 | – | 0.169 | 0.158 | – | – | – | – | – |
| COCCNCC(O)Cn1c2ccc(Cl)cc2c2cc(Cl)ccc21 (stereo not shown) [MMV019017] | CQ (fast) | 0.537 | – | 0.763 | 0.62 | – | – | – | – | – |
| COc1ccccc1CNC(=O)CCn1c(=O)[nH]c2ccsc2c1=O [MMV019066] | ATQ (slow) | 0.007 | – | 0.168 | 1.67 | 2.17 | – | – | – | – |
| Cl.c1ccc2c(NCCCCCCNc3c4c(nc5ccccc35)CCCC4)c3c(nc2c1)CCCC3 [MMV019555] | CQ (fast) | – | – | – | – | – | 0.087 | 0.094 | 0.062 | 0.065 |
| COc1ccc(N2CCN(C(CNC(=O)C3CCCCC3)c3ccc4c(c3)OCO4)CC2)cc1 (stereo not shown) [MMV019662] | ATQ (slow) | 0.358 | – | 0.98 | 0.34 | 0.81 | – | – | – | – |
| COc1ccc(-c2nc(NC(=O)Cc3ccc4c(c3)OCCO4)sc2C)cc1 [MMV019719] | CQ (fast) | 0.236 | – | 0.2 | 0.165 | 0.132 | – | – | – | – |
| Cc1ccc(Oc2ncccc2C(=O)Cc2cccc3cccnc23)c(C)c1 [MMV020746] | ATQ (slow) | 0.993 | – | 0.096 | 0.074 | 0.093 | – | – | – | – |
| COc1cc(-c2nc(-c3ccccc3)c(-c3ccccc3)[nH]2)cc(OC)c1O [MMV020750] | PYR (moderate) | 0.575 | – | 0.597 | 0.342 | 0.656 | – | – | – | – |
| CCCCCCCN(Cc1ccc(OC(C)(C)C(=O)OCC)cc1)C(=O)Nc1ccc(Cl)cc1OCC [MMV021735] | ATQ (slow) | 0.054 | – | 0.383 | 0.459 | 0.543 | – | – | – | – |
| CN(C)Cc1ccc(-c2cc3c(-c4ccc(CN(C)C)cc4)ccnc3[nH]2)cc1.O=C(O)C(F)(F)F [MMV022224] | CQ (fast) | 0.224 | – | 0.242 | 0.343 | 0.356 | – | – | – | – |
| Nc1ncc(-c2cn[nH]c2)cc1-c1nc2ccc(F)cc2[nH]1 [MMV023367] | CQ (fast) | 1.13 | – | 0.519 | 0.303 | 0.269 | – | – | – | – |
| CN(C)S(=O)(=O)c1cc(-c2ccc3nccc(-c4cccc(S(N)(=O)=O)c4)c3c2)cnc1N [MMV024038] | PYR/CQ (moderate) | 0.764 | – | 0.217 | 0.174 | 0.258 | – | – | – | – |
| Cc1ccc(S(=O)(=O)n2cc(-c3ccnc(N)c3)c3cc(Br)cnc32)cc1 [MMV024114] | PYR/CQ (moderate) | 1.17 | – | 0.418 | 0.264 | 0.219 | – | – | – | – |
| O=C(NC(c1ccccc1)c1ccc2cccnc2c1O)c1ccccc1 (stereo not shown) [MMV666080] | – | 0.723 | – | 0.682 | 0.845 | 3.92 | – | – | – | – |
